Results published in US8178534B2, “cMET inhibitors” (Takeda Pharmaceutical Company Limited, priority 2008, dated 2012).

How the values were obtained:
EBC1 = test: Inhibition of cell viability (MTS), EBC1; type: cell-based; conditions: Homo sapiens, 96 hours incubation
Method: (§1) Cells were maintained at 37° C. in a humidified atmosphere containing 5%-8% CO2 following the instructions of the supplier (American Type Culture Collection (Rockville, Md.)). Inhibition of cell viability was determined for a panel of tumor cell lines (MKN45, EBC1 and A549), using the soluble tetrazolium salt, MTS (Promega, Madison, Wis.). Cells were seeded at 2,000-7,500 cells/well in 96-well tissue culture plates and were allowed to attach for approximately 24 hours prior to addition of compounds or DMSO vehicle. […] Cells were treated in duplicate with test compounds. Compounds were serially diluted (1:2.5) from column 1 to 11 and column 12 contained DMSO vehicle. Compounds were diluted into cell growth medium then compound solution was added to cells. Equal amounts of DMSO were added to cells (final concentration is 0.5%). After background correction and normalization against DMSO-treated cells, EC50 values were calculated using non-linear curve-fitting of the cell viability as a function of compound concentration. The MKN45 and EBC1 cell lines contain high levels of phospho-Met and are dependent on cMET for proliferation, whereas the A549 line is used as negative control.
(§2) EC50 values may be calculated by non-linear curve fitting of the compound concentrations and fluorescence intensities to the standard EC50 equation.

A549 = test: Inhibition of cell viability (MTS), A549 (negative control line); type: cell-based; conditions: Homo sapiens, A549 cells (negative control), 96 hours incubation
Method: as §1, §2

MKN45 = test: Inhibition of cell viability (MTS), MKN45; type: cell-based; conditions: Homo sapiens, 96 hours incubation
Method: as §1, §2

[1] = biological target: T1, cMET enzyme (amino acids 1023-1360) (Homo sapiens, UniProt P08581); test: Determination of inhibition of cMET (capillary electrophoresis, phosphorylated peptide product); type: biochemical; conditions: 1.2 nM cMET, 50 μM ATP, 2 μM FL-2 peptide, 2 hours room temperature
T1 construct: The cMET enzyme (amino acids 1023-1360) nominally at 24 μM was held at −80° C. until use; His tag (N, cleaved yes); made in house; host or cells: Sf9 cells
T1 sequence (P08581 1023-1360): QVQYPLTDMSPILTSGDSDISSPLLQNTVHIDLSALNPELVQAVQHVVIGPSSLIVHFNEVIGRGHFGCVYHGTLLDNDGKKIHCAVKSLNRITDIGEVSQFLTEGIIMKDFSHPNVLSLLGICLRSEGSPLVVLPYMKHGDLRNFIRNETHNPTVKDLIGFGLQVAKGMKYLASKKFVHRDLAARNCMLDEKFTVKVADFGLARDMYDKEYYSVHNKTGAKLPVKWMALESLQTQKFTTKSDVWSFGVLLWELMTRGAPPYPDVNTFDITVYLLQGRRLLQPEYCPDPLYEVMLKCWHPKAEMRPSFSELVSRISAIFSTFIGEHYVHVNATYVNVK
Method: The inhibitory property of a compound relative to cMET catalysis was determined by use of capillary electrophoresis with fluorescence quantification of a phosphorylated peptide product for cMET. The cMET enzyme (amino acids 1023-1360) nominally at 24 μM was held at −80° C. until use, in a buffer containing 25 mM Tris-HCl pH 8.5, 150 mM NaCl, 3 mM DTT and 10% glycerol. […] Following purification, the tag was removed and enzyme concentrated. […] To activate the enzyme fully, frozen cMET was thawed quickly and activated with the addition of assay buffer (50 mM HEPES pH 7.5, 10 mM NaCl, 10 mM MgCl2, 0.01% Brij® 35), 1.25 mM ATP, 5 mM MgCl2 and 5 mM DTT at a cMET concentration of 2.4 μM followed by a 30 minute incubation at room temperature. […] Next, cMET enzyme (1.2 nM final) was added and the system incubated at room temperature for 20 minutes. Catalysis was initiated by the addition of ATP (50 μM final). Assays were incubated at room temperature for 2 hours then quenched by the addition of EDTA. Phosphorylated peptide product was quantified by monitoring fluorescence during capillary electrophoresis with Caliper LifeSciences LabChip 3000 under the following settings: base pressure=−0.1 psi, screen pressure=−1.2 psi, downstream voltage=−500 V, upstream voltage=−2300 V, chip type=TC372. The elution buffer was identical to the assay buffer except for the absence of DTT, FL-2 and ATP and the addition of 0.1% coating reagent (Caliper). […] Peak height was quantified and used to determine enzyme velocities.
IC50 values were calculated by non-linear least squares curve fitting of the standard IC50 equation to background-corrected cMET velocity versus compound concentration.

Compound	EC50 (EBC1; EBC-1, 96 h, EBC1 cells) [nM]	EC50 (A549; A549, 96 h) [nM]	EC50 (MKN45; MKN-45, 96 h, MKN45 cells) [nM]	IC50 [1] [nM]	EC50 (EBC1; EBC-1, EBC1 cells) [nM]	EC50 (A549) [nM]	EC50 (MKN45; MKN-45, MKN45 cells) [nM]
O=C(Nc1cn2nc(Sc3nnc4ccc(-c5ccc(N6CCNCC6)cc5)cn34)ccc2n1)C1CC1 [Compound 36, N-(6-(6-(4-(piperazin-1-yl)phenyl)-[1,2,4]triazolo[4,3-a]pyridin-3-ylthio)imidazo[1,2-b]pyridazin-2-yl)cyclopropanecarboxamide]	35 to 99	> 50000	250 to 630	< 30			
O=C(Nc1cn2nc(Sc3nnc4ccc(C#CCO)cn34)ccc2n1)C1CC1 [Compound 37, N-(6-(6-(3-hydroxyprop-1-ynyl)-[1,2,4]triazolo[4,3-a]pyridin-3-ylthio)imidazo[1,2-b]pyridazin-2-yl)cyclopropanecarboxamide]	100 to 199	> 50000	250 to 630	30 to 59			
O=C(Nc1cn2nc(Sc3nnc4ccc(-c5nn[nH]n5)cn34)ccc2n1)C1CC1 [Compound 38, N-(6-(6-(2H-tetrazol-5-yl)-[1,2,4]triazolo[4,3-a]pyridin-3-ylthio)imidazo[1,2-b]pyridazin-2-yl)cyclopropanecarboxamide]	> 200	> 50000	> 630	> 100			
COCc1nc(-c2ccc3nnc(Sc4ccc5nc(NC(=O)C6CC6)cn5n4)n3c2)no1 [Compound 39, N-(6-(6-(5-(methoxymethyl)-1,2,4-oxadiazol-3-yl)-[1,2,4]triazolo[4,3-a]pyridin-3-ylthio)imidazo[1,2-b]pyridazin-2-yl)cyclopropanecarboxamide]	35 to 99	600 to 1600	100 to 249	60 to 100			
CC(C)(O)c1ccc2nnc(Sc3ccc4nc(NC(=O)C5CC5)cn4n3)n2c1 [Compound 40, N-(6-(6-(2-hydroxypropan-2-yl)-[1,2,4]triazolo[4,3-a]pyridin-3-ylthio)imidazo[1,2-b]pyridazin-2-yl)cyclopropanecarboxamide]				> 100	> 200	> 50000	> 630
O=C(Nc1cn2nc(Sc3nnc4ccc(C(F)(F)F)cn34)ccc2n1)C1CC1 [Compound 41, N-(6-(6-(trifluoromethyl)-[1,2,4]triazolo[4,3-a]pyridin-3-ylthio)imidazo[1,2-b]pyridazin-2-yl)cyclopropanecarboxamide]	35 to 99	8000 to 25000	100 to 249	60 to 100			
Cc1ccc2nnc(Sc3ccc4nc(NC(=O)C5CC5)cn4n3)n2c1 [Compound 42, N-(6-(6-methyl-[1,2,4]triazolo[4,3-a]pyridin-3-ylthio)imidazo[1,2-b]pyridazin-2-yl)cyclopropanecarboxamide]	35 to 99	> 50000	100 to 249	60 to 100			
O=C(Nc1cn2nc(Sc3nnc4ccc(-c5cccc(F)c5)cn34)ccc2n1)C1CC1 [Compound 44, N-(6-(6-(3-fluorophenyl)-[1,2,4]triazolo[4,3-a]pyridin-3-ylthio)imidazo[1,2-b]pyridazin-2-yl)cyclopropanecarboxamide]	< 35	600 to 1600	< 100	< 30			
O=C(Nc1cn2nc(C(F)(F)c3nnc4ccc(-c5cnoc5)cn34)ccc2n1)C1CC1 [Compound 46, N-(6-(difluoro(6-(isoxazol-4-yl)-[1,2,4]triazolo[4,3-a]pyridin-3-yl)methyl)imidazo[1,2-b]pyridazin-2-yl)cyclopropanecarboxamide]	60 to 100	> 50000	60 to 100	30 to 59			
O=C(Nc1cn2nc(C(F)(F)c3nnc4ccc(-c5cnn(CCO)c5)cn34)ccc2n1)C1CC1 [Compound 47, N-(6-(difluoro(6-(1-(2-hydroxyethyl)-1H-pyrazol-4-yl)-[1,2,4]triazolo[4,3-a]pyridin-3-yl)methyl)imidazo[1,2-b]pyridazin-2-yl)cyclopropanecarboxamide]	< 30	> 50000	< 30	< 30			
C[C@@H](c1ccc2nc(NC(=O)C3CC3)cn2n1)c1nnc2ccc(-c3cnn(C)c3)cn12 [Compound 50, (S)—N-(6-(1-(6-(1-methyl-1H-pyrazol-4-yl)-[1,2,4]triazolo[4,3-a]pyridin-3-yl)ethyl)imidazo[1,2-b]pyridazin-2-yl)cyclopropanecarboxamide]	< 30	> 50000	30 to 59	< 30			
C[C@H](c1ccc2nc(NC(=O)C3CC3)cn2n1)c1nnc2ccc(-c3cnn(C)c3)cn12 [Compound 51, (R)—N-(6-(1-(6-(1-methyl-1H-pyrazol-4-yl)-[1,2,4]triazolo[4,3-a]pyridin-3-yl)ethyl)imidazo[1,2-b]pyridazin-2-yl)cyclopropanecarboxamide]	> 100	> 50000	> 100	> 100			
CC(c1ccc2nc(NC(=O)C3CC3)cn2n1)c1nnc2ccccn12 (stereo not shown) [Compound 52, N-(6-(1-([1,2,4]triazolo[4,3-a]pyridin-3-yl)ethyl)imidazo[1,2-b]pyridazin-2-yl)cyclopropanecarboxamide]	> 100	> 50000	> 100	> 100			
Cc1ccc2nnc(C(C)c3ccc4nc(NC(=O)C5CC5)cn4n3)n2c1 (stereo not shown) [Compound 53, N-(6-(1-(6-methyl-[1,2,4]triazolo[4,3-a]pyridin-3-yl)ethyl)imidazo[1,2-b]pyridazin-2-yl)cyclopropanecarboxamide]	250 to 630	> 50000	250 to 630	250 to 630			
CC(c1ccc2nc(NC(=O)C3CC3)cn2n1)c1nnc2ccc(-c3ccc(F)cc3)cn12 (stereo not shown) [Compound 55, N-(6-(1-(6-(4-fluorophenyl)-[1,2,4]triazolo[4,3-a]pyridin-3-yl)ethyl)imidazo[1,2-b]pyridazin-2-yl)cyclopropanecarboxamide]	< 30	> 50000	< 30	< 30			
COc1ccc(-c2ccc3nnc(C(C)c4ccc5nc(NC(=O)C6CC6)cn5n4)n3c2)cc1 (stereo not shown) [Compound 56, N-(6-(1-(6-(4-methoxyphenyl)-[1,2,4]triazolo[4,3-a]pyridin-3-yl)ethyl)imidazo[1,2-b]pyridazin-2-yl)cyclopropanecarboxamide]	< 30	> 50000	< 30	< 30			
CC(c1ccc2nc(NC(=O)C3CC3)cn2n1)c1nnc2ccc(-c3cccc(C#N)c3)cn12 (stereo not shown) [Compound 57, N-(6-(1-(6-(3-cyanophenyl)-[1,2,4]triazolo[4,3-a]pyridin-3-yl)ethyl)imidazo[1,2-b]pyridazin-2-yl)cyclopropanecarboxamide]	< 30	> 50000	< 30	< 30			
CNC(=O)c1ccc(-c2ccc3nnc(C(C)c4ccc5nc(NC(=O)C6CC6)cn5n4)n3c2)cc1F (stereo not shown) [Compound 58, 4-(3-(1-(2-(cyclopropanecarboxamido)imidazo[1,2-b]pyridazin-6-yl)ethyl)-[1,2,4]triazolo[4,3-a]pyridin-6-yl)-2-fluoro-N-methylbenzamide]	< 30	> 50000	< 30	< 30			
CC(c1ccc2nc(NC(=O)C3CC3)cn2n1)c1nnc2ccc(-c3cccc(S(C)(=O)=O)c3)cn12 (stereo not shown) [Compound 59, N-(6-(1-(6-(3-(methylsulfonyl)phenyl)-[1,2,4]triazolo[4,3-a]pyridin-3-yl)ethyl)imidazo[1,2-b]pyridazin-2-yl)cyclopropanecarboxamide]	60 to 100	> 50000	100 to 249	< 30			
